Results on two compounds are retold here after patent US20190119504A1 (Dow Global Technologies LLC, priority 2016, published 2019).

One test concerns Chlorella sp. ATCC 7516. In words: Algal efficacy testing of dry paint film, modified ASTM 5589. The class given is cell-based. How it is done:
(§1) These paints were then diluted with a biocide free acrylic/silicone based paint and mixed to prepare targeted concentrations of biocide combinations for the testing. The total biocides concentrations obtained were 125, 250, 500, 1000, 2000 and 5000 ppm. After biocides addition or dilution, the paints were mixed 90 seconds with the horse power shaker (AXEL 75M3372/Agitateur SO-10MI) until uniformity was achieved. […] After one day, the paints were applied to Schleicher & Schuell filter paper at 280 μm wet film thickness and dried for 3 days at room temperature avoiding direct exposure to sunlight. […] This sample size allowed for an agar border when the sample disc was placed into the well of the test plate.
Algal efficacy was tested according to modified ASTM 5589 which is a standard accelerated test method for determining resistance of various coatings (including paints) to algal defacement. To accommodate for high-throughput screening, this method was scaled down from petri plates to 6-well plates. Bold Modified Basal Freshwater Nutrient Solution was used as growth medium for the algal culture and Bold's agar was used for the efficacy testing. A single coupon was placed with a pair of sterile forceps at the center of the agar plug (on top) with the painted surface facing upwards. The algal inoculum was prepared by diluting an exponentially growing culture of Chlorella sp. to 1×10^6 cfu/ml.
Each well that contains a tested coupon was inoculated with 1750 μl of algal suspension (1×10^6 cfu/ml) making sure that the whole surface (paint film as well as the agar surrounding it) was evenly covered. The plates were incubated at room temp (21° C.-25° C.) with cyclic exposure to 14 hours fluorescent light followed by 10 hours darkness, for a period of three weeks.
(§2) The SI is calculated based on F. C. Kull et.
SI=Qa/QA+Qb/QB • Qa=the concentration of Antimicrobial A in the blend • QA=the concentration of Antimicrobial A as the only biocide • Qb=the concentration of Antimicrobial B in the blend • QB=the concentration of Antimicrobial B as the only antimicrobial […]

Test [1] has as its system Aspergillus niger DSMZ 1957. Briefly: Fungal efficacy testing of dry paint film, modified ASTM 5590. The class given is cell-based. As to conditions: A. niger 1957, three weeks. On the procedure: as §1
ASTM 5590 is a standard accelerated test method for determining resistance of various coatings (including paints) to fungal defacement. To accommodate for high-throughput screening, this method was scaled down from petri plates to 6-well plates. […] A single coupon was placed with a pair of sterile forceps at the center of the agar plug (on top) with the painted surface facing upwards.
as §2
SI=Qa/QA+Qb/QB • Qa=the concentration of Antimicrobial A in the blend • QA=the concentration of Antimicrobial A as the only biocide • Qb=the concentration of Antimicrobial B in the blend • QB=the concentration of Antimicrobial B as the only antimicrobial
SI value of <1 in the formula indicates a synergism of the blended biocides exists.

A word on the inhibition: it is the relative decrease from the control value, in per cent. Regarding `Cc1ccc(S(=O)(=O)C(I)I)cc1` [DIMTS, Diiodomethyl p-tolyl sulfone], the inhibition at 5000 ppm with Chlorella sp. ATCC 7516 (504 h, total conc 5000 ppm, three weeks, color intensity vs blank) was 95%. Also, the “Total conc, ppm (concentration used as minimum inhibitory concentration for SI; pass level 75% inhibition)” value in the test with Chlorella sp. ATCC 7516 (total active ingredient in liquid paint, dry film, three weeks) is recorded as 5000 ppm. Also, in test [1] (total active ingredient in liquid paint, dry film), the “Total conc, ppm (concentration used as minimum inhibitory concentration for SI; pass level 75% inhibition; where pass not reached, concentration tested)” value worked out at 2000 ppm. Moreover, in test [1] (Aspergillus niger, DSMZ1957, 504 h, total conc 2000 ppm, area covered, increments of 5%), the inhibition at 2000 ppm was determined as 95%.

Regarding `O=c1[nH]c2c(c(=O)n1C1CCCCC1)CCC2` [LENACIL, 3-Cyclohexyl-6,7-dihydro-1H-cyclopentapyrimidine-2,4-(3H,5H)-dione], the inhibition at 1000 ppm in the test with Chlorella sp. ATCC 7516 (504 h) is 90%. The inhibition at 10000 ppm in test [1] (Aspergillus niger, DSMZ1957, 504 h, total conc 10000 ppm, area covered, increments of 5%) was found to be 0%.
